Laboratory results: US20070224155A1, “Cleansing compositions and methods of reducing skin irritation” (ACCESS BUSINESS GROUP INTERNATIONAL, LLC, priority 2006, published 2007)

System: IL-1 alpha
Assay: IL-1 alpha assay: ELISA of IL-1α secreted by fibroblast/keratinocyte co-cultures exposed to a surfactant irritant with or without mildness agent
Assay type: cell-based, human
Settings: hand dishwashing detergent; for Percent IL-1 α Reduction AVG: average of 1%, 0.1% and 0.01%
Description: IL-1 alpha is one cytokine often released near the beginning of the inflammation cascade, which ultimately leads to a human biological response resulting in visible and/or perceptual signs of irritation. Accordingly, by reducing the initial response to an irritant, such as a surfactant, the ultimate damaging reaction can be reduced, prevented, and/or eliminated.
The procedure for conducting IL-1 alpha assays is as follows: Co-cultures of fibroblasts and keratinocytes, the primary cell types found in skin, are established using 100,000 fibroblasts and 200,000 keratinocytes per well. These types of cells are those found in the outer layers of the skin exposed to detergent during every day use. An irritant, for example the surfactant package used in a dish detergent (Example 1 below), is then applied to the coculture wells to initiate the production and secretion of pro-inflammatory cytokines by the cells. One such cytokine is human interleukin-1 alpha or IL-1α. In the body, this protein is a key mediator of the host response to infections and various inflammatory challenges. Once produced, IL-1α stimulates production of other pro-inflammatory cytokines and bioactive molecules. Together, these biological molecules send the message that something is wrong and the keratinocytes and fibroblasts need help. This is called the inflammatory response.
The amount of secreted IL-1α is directly related to the intensity of the inflammatory response. In vitro, the concentration of IL-1α secreted by the co-culture cells in response to the irritant can be measured via a precise laboratory technique known as an Enzyme Linked Immuno-Sorbent Assay or ELISA. Thus, to test botanical materials for mildness, a lessening of IL-1α secretion, the mildness agents were added with the chemical irritant. When a reduction in IL-1α expression was observed, the mildness agents were successful. Theoretically, there are several mechanisms by which this could have been achieved at the cellular level. Without wishing to be bound to a particular theory or in any way limit the scope of the appended claims or their equivalents, it is presently believed that these mechanisms may include one or more of the following: the mildness agent could block the transcription of the DNA to RNA, translation of the RNA to protein, and/or release of the IL-1α from the cells. […] The mildness agent may also have stopped the cascade after the irritant works on the cell. Whatever the mechanism, the net result is the same. There is less IL-1α released by the cells which correlates to inhibition of events in the inflammatory cascade and ultimately, less inflammation.
These were prepared using a serial dilution technique: 1.0 g botanical was mixed well with 99.0 g dish detergent to give the 1.0% formulation; next, 10.0 g of the 1.0% solution was mixed well with 90.0 g of the dish detergent to give the 0.1% formulation; finally, 10.0 g of the 0.1% solution was mixed well with 90.0 g of the dish detergent to give the 0.01% formulation.

[1] = botanical concentration 0.01% by weight
[2] = botanical concentration 0.1% by weight
[3] = botanical concentration 1% by weight

| SMILES | Percent IL-1 α Reduction AVG [%] | Percent IL-1 α Reduction [1] [%] | Percent IL-1 α Reduction [2] [%] | Percent IL-1 α Reduction [3] [%] |
| --- | --- | --- | --- | --- |
| N[C@@H](CCC(=O)O)C(=O)NCCc1c[nH]c2ccccc12 [GLISTIN, glutaurylamidoethyl indole] | 22.63 | 18.50 | 31.80 | 17.60 |
| O=C(O)c1ccccc1O.O[SiH2]O [D.S.B.C., silanediol salicylate] | 12.42 | 7.46 | 13.07 | 16.74 |
